# Test results from patent US20240189344A1, “METHODS USING CARBON DIOXIDE AND OXYGEN TO IMPROVE CHARACTERISTICS OF POULTRY” (priority 2022, published 2024).
# Legend:
# [1] = Average bird weight at hatch and at 28 days after CO2 incubation; format: in vivo, chicken
# Description: (§1) 900 fertilized eggs from a commonly used commercial chicken strain, Ross 708, that were less than 1 week old since being laid, and laid in the same laying facility by layers (chickens) of the same age, were split equally into three batches of 300 each. One batch, referred to as control batch, was incubated for 18 days in an atmosphere in which no additional CO2 was injected into this atmosphere from any source outside the egg. For this batch, the CO2 concentration inside the incubator varied between the CO2 concentration of the ambient atmosphere (i.e. about 409 ppm) and as high as 1,500 ppm (resulting from CO2 generation by the eggs themselves). The second batch, referred to as 4,000 ppm test CO2 batch or 0.4% CO2 test batch, was incubated for 18 days wherein the CO2 concentration in the incubator from the start of the first day through the end of the eighteenth day was maintained at 4,000 ppm (i.e. 0.4% CO2) by occasional injections of CO2 as necessary. The third batch, referred to as 10,000 ppm test CO2 batch or 1% CO2 test batch, was incubated for 18 days according to Regimen 1 described herein, wherein the CO2 concentration in the incubator from the start of the first day through the end of the eighteenth day was maintained at 10,000 ppm (i.e. 1% CO2) by occasional injections of CO2 as necessary. All three batches were incubated at approximately 100° F. and between 30% and 70% relative humidity. At the end of the eighteenth day of incubation, all three batches of eggs were transferred to hatcher equipment, where the eggs hatched over the next 3 days. No external CO2 was injected into the hatcher from any source outside the eggs for this period of 3 days. Thus, the only difference between the conditions under which the three batches were incubated was that in the control batch no additional CO2 was injected, whereas for the other two batches additional, external CO2 was injected to subject the eggs to CO2 concentrations of 4,000 ppm and 10,000 ppm respectively. During the incubation period the oxygen concentration in the control incubator was always above 20%, whereas in the 4,000 ppm and 10,000 ppm CO2 controlled incubators, the oxygen level was typically above 19%.
# (§2) Once the chicks hatched, approximately 150 of the male chicks from each batch were taken to grow cages and they began to be fed water and feed. From this point onwards, there was no difference in the treatment of the birds. 28 days after hatching the chickens from each batch were weighed and then stunned. Then the birds were measured for Woody Breast scores by manual palpitation by a trained panel of experts under single-blinded conditions. Each breast was given a score of either 0, 1, 2 or 3. Score 0 means no WB was detected. Score 3 meant very high levels of WB detected and scores 1 and 2 meant intermediate levels of WB were detected.
# (§3) 600 fertilized eggs from a commonly used commercial chicken strain, Ross 708, that were less than 1 week old since being laid, and laid in the same laying facility by layers (chickens) of the same age, were split equally into batches of 300 each. One batch, referred to as control batch, was incubated for 18 days in an atmosphere in which no additional CO2 was injected into this atmosphere from any source outside the egg. For this batch, the CO2 concentration inside the incubator varied between ambient atmospheric (i.e. about 409 ppm) and as high as 1,500 ppm (resulting from CO2 generation by the egg). […]
# Ross 708 chickens = assay: Livability: percentage of hatched birds surviving to 28 days after CO2 incubation; format: in vivo, chicken; settings: for percentage of birds that survived compared to control: 28 days
# Description: as §1, with “No external CO2 was injected into the hatcher from any source outside the eggs for this period of 3 days. Thus, the only difference between the conditions under which the three batches were incubated was that in the control batch no additional CO2 was injected, whereas for the other two batches additional, external CO2 was injected to subject the eggs to CO2 concentrations of 4,000 ppm and 10,000 ppm respectively. During the incubation period the oxygen concentration in the control incubator was always above 20%, whereas in the 4,000 ppm and 10,000 ppm CO2 controlled incubators, the oxygen level was typically above 19%.” left out
# Once the chicks hatched, approximately 150 of the male chicks from each batch were taken to grow cages and they began to be fed water and feed. […] Then the birds were measured for Woody Breast scores by manual palpitation by a trained panel of experts under single-blinded conditions. […] Score 0 means no WB was detected. Score 3 meant very high levels of WB detected and scores 1 and 2 meant intermediate levels of WB were detected. […]
# [2] = tested on: Ross 708 chickens (Woody Breast); assay: Woody Breast scores by manual palpation in chickens hatched from eggs incubated under controlled CO2; format: in vivo, chicken
# Description: as §1, §2, §3
# [3] = tested on: fertilized Ross 708 chicken eggs; assay: Percent of fertile eggs hatched at end of 21 days of incubation under controlled CO2; format: in vivo
# Description: as §1
# as §3, with “egg.” for “egg. For this batch, the CO2 concentration inside the incubator varied between ambient atmospheric (i.e. about 409 ppm) and as high as 1,500 ppm (resulting from CO2 generation by the egg).”
# [4] = Regimen 1, constant 1% CO2 for 18 days
compound,measurement,setting,value
"O=C=O [CO2, carbon dioxide]","average final weight at 28 days, higher than control by",[1]; [4],approximately 5%
same,increase of average weight just after hatch vs control,[1]; [4],approximately 5%
same,"average weight at hatch, lower than control by","[1]; Regimen 2, 1% CO2 ramp up",approximately 6.5%
same,weight at 28 days compared to control birds,"[1]; Regimen 2, 1% CO2 ramp up",slightly heavier
same,"average weight at hatch, lower than control by","[1]; Regimen 3, 0.75% CO2 on-off",approximately 1.5%
same,"weight at 28 days, heavier than control birds by","[1]; Regimen 3, 0.75% CO2 on-off",11%
same,more hatched birds surviving to end of 28 days compared to control,Ross 708 chickens; [4],Approximately 4%
same,percentage of birds that survived compared to control,"Ross 708 chickens; Regimen 2, 1% CO2 ramp up",no statistical difference
same,percentage of birds that survived compared to control,"Ross 708 chickens; Regimen 3, 0.75% CO2 on-off",no statistical difference
same,% of birds scoring 1 (Woody Breast score),"[2]; Regimen 1, constant 10,000 ppm (1%) CO2 for 18 days, 28 days after hatching, control 24%",15%
same,incidence of WB compared to control birds,"[2]; Regimen 1, constant 10,000 ppm (1%) CO2 in incubator for 18 days, scored 28 days after hatching",significantly reduced
same,% of birds scoring 1 (Woody Breast score),"[2]; Regimen 2, 1% CO2 ramp up, 28 days after hatching, control 13%",8%
same,incidence of WB compared to control birds,"[2]; Regimen 2, CO2 ramp up in equal daily steps to 10,000 ppm (1%) on day 18, 28 days after hatching",significantly reduced
same,% of birds scoring 2 (Woody Breast score),"[2]; Regimen 3, 0.75% CO2 on-off, 28 days after hatching, control 5%",1%
same,% of birds scoring 1 (Woody Breast score),"[2]; Regimen 3, 0.75% CO2 on-off, 28 days after hatching, control 23%",17%
same,% of birds scoring 0 (Woody Breast score),"[2]; Regimen 3, 0.75% CO2 on-off, 28 days after hatching, control 73%",82%
same,incidence of WB compared to control birds,"[2]; Regimen 3, 7,500 ppm (0.75%) CO2 on-off on alternate 24 h periods till day 18, 28 days after hatching",significantly reduced
same,WB scores compared to control,"[2]; constant 4,000 ppm (0.4%) CO2 for 18 days, 28 days after hatching",higher
same,% of birds scoring 2 (Woody Breast score),"[2]; constant 4,000 ppm (0.4%) CO2 for 18 days, 28 days after hatching, control 1%",9%
same,percent of fertile eggs that hatched at the end of 21 days of incubation,"[3]; Regimen 1, constant 10,000 ppm (1%) CO2 for 18 days, control 88.1%",93.5%
same,percent of fertile eggs that hatched at the end of 21 days of incubation,"[3]; Regimen 2, 1% CO2 ramp up, control 91%",94.1%
same,percent of fertile eggs that hatched at the end of 21 days of incubation,"[3]; Regimen 3, 0.75% CO2 on-off, control 88.7%",96%
same,percent of fertile eggs that hatched at the end of 21 days of incubation,"[3]; constant 4,000 ppm (0.4%) CO2 for 18 days, control 88.1%",95.6%
